Experimental data: patent US8192962B2, “Processes for detecting toxic substances” (Daikin Industries, Ltd., priority 2001, dated 2012)

Tested on: Energy system protein genes
Experiment: DNA chip mRNA expression in yeast, energy system protein genes (Table 4)
Type: cell-based, Saccharomyces cerevisiae S288C
Outline: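 Value is the scanned fluorescence intensity ratio of exposed versus chemical-free cells. Log-phase S288C yeast in YPD at 25° C. received one toxic substance for two hours, dosed to slow growth without killing; Cy3/Cy5-labeled cDNA from oligo-dT-purified mRNA was hybridized to a whole-genome chip at 65° C.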

## Cl[C@H]1[C@H](Cl)[C@@H](Cl)[C@@H](Cl)[C@H](Cl)[C@H]1Cl [(7), γ-hexachlorocyclohexane]
Yeast gene YJR009C
  The level of expressed mRNA in the presence of chemical substance/The level of expressed mRNA in the absence of chemical substance: 1.6
Yeast gene YJR048W
  The level of expressed mRNA in the presence of chemical substance/The level of expressed mRNA in the absence of chemical substance: 0.3
Yeast gene YJR121W, cells incubated two hours with the chemical substance
  The level of expressed mRNA in the presence of chemical substance/The level of expressed mRNA in the absence of chemical substance: 1.0
Yeast gene YJR155W
  The level of expressed mRNA in the presence of chemical substance/The level of expressed mRNA in the absence of chemical substance: 1.7
Yeast gene YKL016C, cells incubated two hours with the chemical substance
  The level of expressed mRNA in the presence of chemical substance/The level of expressed mRNA in the absence of chemical substance: 1.5
Yeast gene YKL060C, cells incubated two hours with the chemical substance
  The level of expressed mRNA in the presence of chemical substance/The level of expressed mRNA in the absence of chemical substance: 1.2
Yeast gene YKL141W, cells incubated two hours with the chemical substance
  The level of expressed mRNA in the presence of chemical substance/The level of expressed mRNA in the absence of chemical substance: 0.5
Yeast gene YKL148C, cells incubated two hours with the chemical substance
  The level of expressed mRNA in the presence of chemical substance/The level of expressed mRNA in the absence of chemical substance: 0.6
Yeast gene YKR009C, cells incubated two hours with the chemical substance
  The level of expressed mRNA in the presence of chemical substance/The level of expressed mRNA in the absence of chemical substance: 1.0
Yeast gene YKR058W, cells incubated two hours with the chemical substance, 25° C., YPD medium
  The level of expressed mRNA in the presence of chemical substance/The level of expressed mRNA in the absence of chemical substance: 1.4
Yeast gene YKR097W
  The level of expressed mRNA in the presence of chemical substance/The level of expressed mRNA in the absence of chemical substance: 3.7
Yeast gene YLL041C, cells incubated two hours with the chemical substance
  The level of expressed mRNA in the presence of chemical substance/The level of expressed mRNA in the absence of chemical substance: 0.3
Yeast gene YLR038C, cells incubated two hours with the chemical substance
  The level of expressed mRNA in the presence of chemical substance/The level of expressed mRNA in the absence of chemical substance: 1.0
Yeast gene YLR044C, cells incubated two hours with the chemical substance
  The level of expressed mRNA in the presence of chemical substance/The level of expressed mRNA in the absence of chemical substance: 1.3
Yeast gene YLR134W, cells incubated two hours with the chemical substance
  The level of expressed mRNA in the presence of chemical substance/The level of expressed mRNA in the absence of chemical substance: 1.1
Yeast gene YLR258W, cells incubated two hours with the chemical substance
  The level of expressed mRNA in the presence of chemical substance/The level of expressed mRNA in the absence of chemical substance: 1.8
Yeast gene YLR284C, cells incubated two hours with the chemical substance
  The level of expressed mRNA in the presence of chemical substance/The level of expressed mRNA in the absence of chemical substance: 0.8
Yeast gene YLR295C, cells incubated two hours with the chemical substance, 25° C., YPD medium
  The level of expressed mRNA in the presence of chemical substance/The level of expressed mRNA in the absence of chemical substance: 1.1
Yeast gene YLR304C, cells incubated two hours with the chemical substance
  The level of expressed mRNA in the presence of chemical substance/The level of expressed mRNA in the absence of chemical substance: 0.6
Yeast gene YLR345W
  The level of expressed mRNA in the presence of chemical substance/The level of expressed mRNA in the absence of chemical substance: 1.2
Yeast gene YLR354C, cells incubated two hours with the chemical substance
  The level of expressed mRNA in the presence of chemical substance/The level of expressed mRNA in the absence of chemical substance: 1.1
Yeast gene YLR377C, cells incubated two hours with the chemical substance
  The level of expressed mRNA in the presence of chemical substance/The level of expressed mRNA in the absence of chemical substance: 0.9
Yeast gene YML087C
  The level of expressed mRNA in the presence of chemical substance/The level of expressed mRNA in the absence of chemical substance: 1.1
Yeast gene YML120C, cells incubated two hours with the chemical substance
  The level of expressed mRNA in the presence of chemical substance/The level of expressed mRNA in the absence of chemical substance: 0.8
Yeast gene YML129C, cells incubated two hours with the chemical substance
  The level of expressed mRNA in the presence of chemical substance/The level of expressed mRNA in the absence of chemical substance: 1.8
Yeast gene YMR073C, cells incubated two hours with the chemical substance
  The level of expressed mRNA in the presence of chemical substance/The level of expressed mRNA in the absence of chemical substance: 1.0
Yeast gene YMR118C
  The level of expressed mRNA in the presence of chemical substance/The level of expressed mRNA in the absence of chemical substance: 1.0
Yeast gene YMR205C, cells incubated two hours with the chemical substance
  The level of expressed mRNA in the presence of chemical substance/The level of expressed mRNA in the absence of chemical substance: 0.9
Yeast gene YMR261C, cells incubated two hours with the chemical substance
  The level of expressed mRNA in the presence of chemical substance/The level of expressed mRNA in the absence of chemical substance: 1.3
Yeast gene YMR267W, cells incubated two hours with the chemical substance, 25° C., YPD medium
  The level of expressed mRNA in the presence of chemical substance/The level of expressed mRNA in the absence of chemical substance: 1.2
Yeast gene YMR323W, cells incubated two hours with the chemical substance
  The level of expressed mRNA in the presence of chemical substance/The level of expressed mRNA in the absence of chemical substance: 1.1
Yeast gene YNL071W
  The level of expressed mRNA in the presence of chemical substance/The level of expressed mRNA in the absence of chemical substance: 1.4
Yeast gene YNL202W, cells incubated two hours with the chemical substance
  The level of expressed mRNA in the presence of chemical substance/The level of expressed mRNA in the absence of chemical substance: 0.9
Yeast gene YNL241C
  The level of expressed mRNA in the presence of chemical substance/The level of expressed mRNA in the absence of chemical substance: 3.2
Yeast gene YNL331C
  The level of expressed mRNA in the presence of chemical substance/The level of expressed mRNA in the absence of chemical substance: 1.9
Yeast gene YOL086C, cells incubated two hours with the chemical substance
  The level of expressed mRNA in the presence of chemical substance/The level of expressed mRNA in the absence of chemical substance: 1.9
Yeast gene YOL165C
  The level of expressed mRNA in the presence of chemical substance/The level of expressed mRNA in the absence of chemical substance: 1.4
Yeast gene YOR142W, cells incubated two hours with the chemical substance
  The level of expressed mRNA in the presence of chemical substance/The level of expressed mRNA in the absence of chemical substance: 1.0
Yeast gene YOR178C, cells incubated two hours with the chemical substance
  The level of expressed mRNA in the presence of chemical substance/The level of expressed mRNA in the absence of chemical substance: 0.9
Yeast gene YOR388C, cells incubated two hours with the chemical substance
  The level of expressed mRNA in the presence of chemical substance/The level of expressed mRNA in the absence of chemical substance: 1.0
Yeast gene YPL031C, cells incubated two hours with the chemical substance
  The level of expressed mRNA in the presence of chemical substance/The level of expressed mRNA in the absence of chemical substance: 1.6
Yeast gene YPL061W, cells incubated two hours with the chemical substance
  The level of expressed mRNA in the presence of chemical substance/The level of expressed mRNA in the absence of chemical substance: 0.5
Yeast gene YPL088W
  The level of expressed mRNA in the presence of chemical substance/The level of expressed mRNA in the absence of chemical substance: 3.7
Yeast gene YPL171C
  The level of expressed mRNA in the presence of chemical substance/The level of expressed mRNA in the absence of chemical substance: 1.7
Yeast gene YPL240C
  The level of expressed mRNA in the presence of chemical substance/The level of expressed mRNA in the absence of chemical substance: 1.4
Yeast gene YPL262W, cells incubated two hours with the chemical substance
  The level of expressed mRNA in the presence of chemical substance/The level of expressed mRNA in the absence of chemical substance: 1.3
Yeast gene YPL275W, cells incubated two hours with the chemical substance
  The level of expressed mRNA in the presence of chemical substance/The level of expressed mRNA in the absence of chemical substance: 1.1
Yeast gene YPL276W, cells incubated two hours with the chemical substance
  The level of expressed mRNA in the presence of chemical substance/The level of expressed mRNA in the absence of chemical substance: 1.2
Yeast gene YPR048W, cells incubated two hours with the chemical substance
  The level of expressed mRNA in the presence of chemical substance/The level of expressed mRNA in the absence of chemical substance: 0.9
Yeast gene YPR184W, cells incubated two hours with the chemical substance
  The level of expressed mRNA in the presence of chemical substance/The level of expressed mRNA in the absence of chemical substance: 1.3
